Results reported in patent US20250163057A1, “DCN-1 MODULATING COMPOUNDS AND METHODS OF USE THEREOF” (Cellarity, Inc., priority 2023, published 2025).
Where two headings read alike, the source gives them in different places.

Legend:
[1] = molecular target: DCN2 (DCUND2) protein PONY domain (Homo sapiens (Human), UniProt Q6PH85); test: Measurement of Kinact/KI in the DCN2 TR-FRET Assay; type: binding
Protocol: A TR-FRET Assay was performed to evaluate the ability of the compounds to bind DCN-2.
The time resolved—Forster's resonance energy transfer (TR-FRET) assay was designed following the protocol established in (Scott et al., Nat Chem Biol. 2017 August; 13(8): 850-857). A recombinant form of the DCN2 (DCUND2) protein PONY domain was produced using an E. coli expression system at Viva Biotech China. The DCN2 protein was biotinylated (EZ sulfo-NHS-LC-biotin; Thermofisher) for labeling with 2.5 nM streptavidin terbium (Tb) cryptate in the reaction. The probe was changed to a non-covalent DCN1 inhibitor labeled with carboxyfluorescein (FAM; Zhou et al, Nat Commun. 2017; 8: 1150). Buffer conditions were modified to enhance protein stability by replacing TritonX with 0.05% Tween20 and increasing NaCl to 200 mM. The compounds were screened against 0.31 nM DCN1 and 40 nM FAM-labeled probe in a 40 ul reaction volume. The TR-FRET ratio between Tb-DCN1 and the FAM-labeled probe was measured in a 384-well opti-plate (Perkin Elmer) using a plate reader (BMG) at after treatment with compound (final DMSO concentration of 0.1%). The ratio was normalized to the high (DCN1 and FAM-probe) and low (DCN1 and no probe) controls for a readout of % activity (=100*(x−low)/(high−low)).
The Kinact and KI measurements were taken to allow for continuous reads over 24 hrs. Plates were read every 5 min up to 1 hr, every 15 min up to 5 hr, and every hour up to […]. Kinact and KI were calculated based on the following equations (Krippendorff B F, et al. Mechanism-based inhibition: deriving K(I) and k(inact) directly from time-dependent IC(50) values. J BiomolScreen. 2009; Mons E et al. A Comprehensive Guide for Assessing Covalent Inhibition in Enzymatic Assays Illustrated with Kinetic Simulations. CurrProtoc. 2022) where the KM of the probe against DCN2 is 21.62 nM. The Kinact and KI values could be estimated from the tight curves of the IC50 values over time.

[2] = molecular target: T1, DCN1 (DCUND1) protein PONY domain (Homo sapiens (Human), UniProt Q96GG9); test: Off-rate measurement of reversible covalent molecules (jump dilution TR-FRET with Cy5 probe); type: binding
Description: A typical covalent compound is assumed to stay bound to a protein for at least the life of that protein in the cell. In reality, there is a range of how long a covalent compounds remains bound before a reverse reaction takes place. Thus, some covalent bonds can be labeled as reversible as their reverse reaction takes place in a measurable amount of time under physiological conditions. The assay capitalizes on the range of covalent binders by using a high affinity covalent binder as a probe to displace the more reversible binders in an adaptation of the jump dilution method.
In this version of the jump dilution method, the increase in covalent probe binding over time was measured through a TR-FRET reaction between the covalent probe and the biotinylated target protein.
The recombinant form of the DCN1 (DCUND1) protein PONY domain was produced using an E. coli expression system at Viva Biotech (China). The DCN1 protein was biotinylated (EZ sulfo-NHS-LC-biotin; Thermofisher) for labeling with streptavidin terbium (Tb) cryptate in the reaction. This biotinylated protein was used in two forms of the TR-FRET assay as described below.
The off-rate measurement is executed in two steps based on the jump dilution method. […] The greatest dilution allowed within the constraints of the assay was chosen. These factors allow a competitive advantage for the covalent probe to replace the test compound when that compound releases from the target protein. The actual measure is the rate of increased TR-FRET signal as the covalent probe replaces the test compound over time. […] The resulting time dependent curve of the TR-FRET signal is fit to the following equation:
Y=Y0+(Plateau−Y0)*(1−exp(−K*x))
K is the rate constant (1/unit of time). The residence time is defined as the inverse of K, the rate constant. The half-life is calculated as ln(2)/K.

[3] = molecular target: T1, DCN1 (DCUND1) protein PONY domain; test: TR-FRET assay, DCN1 binding with FAM-labeled probe
In short: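 Tb-DCN1 PONY domain (E. coli, biotin/streptavidin-Tb); FAM-labelled non-covalent inhibitor probe; TritonX buffer, 200 mM NaCl; 5 nM DCN1 + 20 nM probe or 0.31 nM DCN1 + 900 nM total probe; 0.1% DMSO; TR-FRET read 1, 5, 24 hrs.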

[4] = tested on: Cullin-3 (CUL3) neddylation; test: AlphaLISA assay for Cullin-3 (CUL3) neddylation in TF 1 cells; type: cell-based; conditions: Homo sapiens, TF-1, 3 h, 3 hours treatment
In short: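 TF 1 cells in unsupplemented IMDM treated with compound concentrations for 3 h, then lysed. CUL3 neddylation detected by AlphaLISA (biotinylated anti-NEDD8, anti-CUL3 acceptor beads overnight, streptavidin donor beads 1 h); normalized to vehicle (0%) and 1 μM DI-1548 (100%), IC50 from Hill fits.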

T1 sequence (Q96GG9 60-248): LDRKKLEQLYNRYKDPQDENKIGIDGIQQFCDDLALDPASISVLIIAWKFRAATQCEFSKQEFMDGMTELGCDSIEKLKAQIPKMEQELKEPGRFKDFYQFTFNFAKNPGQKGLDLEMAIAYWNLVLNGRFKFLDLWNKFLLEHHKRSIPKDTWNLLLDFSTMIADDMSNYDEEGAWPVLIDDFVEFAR
Chain of DCN2 (DCUND2) protein PONY domain (Q6PH85 60-248): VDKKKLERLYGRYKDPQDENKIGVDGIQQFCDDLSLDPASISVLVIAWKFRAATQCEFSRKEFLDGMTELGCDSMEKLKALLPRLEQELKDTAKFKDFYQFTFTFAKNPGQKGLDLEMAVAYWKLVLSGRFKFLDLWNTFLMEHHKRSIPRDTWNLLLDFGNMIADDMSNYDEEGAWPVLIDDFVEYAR

SMILES: CCN1C(=O)[C@@H](NC(=O)c2cccc(C(F)(F)F)c2)[C@@H](C2CC2)c2c(C(=O)N3C[C@H](NC)C[C@H]3C#N)nn(C3CCOCC3)c21 [Compound I-425, N-((4S,5S)-3-((2S,4R)-2-cyano-4-(methylamino)pyrrolidine-1-carbonyl)-4-cyclopropyl-7-ethyl-6-oxo-1-(tetrahydro-2H-pyran-4-yl)-4,5,6,7-tetrahydro-1H-pyrazolo[3,4-b]pyridin-5-yl)-3-(trifluoromethyl)benzamide]
- kinact/KI ([1]; read-out: Kinact/KI (converted)): 5000 M⁻¹ s⁻¹
- Ki ([1]; time-dependent IC50 over 24 hrs): 21.6 nM
- kinact ([1]; time-dependent IC50 over 24 hrs, read-out: Kinact (converted)): 0.000115 s⁻¹
- Category ([2]; binding mode category from off-rate assay): fast reversible
- residence time ([2]; inverse of rate constant K, jump dilution TR-FRET): 76 min
- koff ([2]; jump dilution, Cy5 covalent probe 150 nM, TR-FRET): 0.000219 s⁻¹
- half-life ([2]; ln(2)/K, jump dilution TR-FRET): 52.69 min
- IC50 ([3]; 24 hr after treatment with compound, read-out: TR FRET IC50 24 hr): ≤ 200 nM
- IC50 ([3]; read-out: TR FRET IC50 1 hr, 1 hr after treatment with compound): ≤ 200 nM
- IC50 [4]: ≤ 100 nM
